Values of other authors as cited in PubChem BioAssay AID1259409 (Chemical Carcinogenesis Research Information System (CCRIS), 2018).

Tested on: rodent chemically induced tumor inhibition, incidence and multiplicity
Assay: CCRIS tumor inhibitor studies
Conditions: Species: MOUSE

Row | SMILES | tumour outcome (control, treated, inhibition, significance) (Carcinogen: 7,12-DIMETHYLBENZ[A]ANTHRACENE, 57-97-6, Dose [Inhibitor]: 0, 1.62 MICROMOLAR 2/WK FOR 18 WK APPLIED SIMULTANEOUSLY WITH PROMOTER DOSE (STUDY DURATION: 18 WK), Route [Inhibitor]: DERMAL, Strain/Sex: ICR/FEMALE, Target Tissue: Type of Lesion: SKIN: TUMOR, Dose [Carcinogen]: 100 UG ONCE, Promoter: 12-O-TETRADECANOYLPHORBOL-13-ACETATE, 16561-29-8) | tumour outcome (control, treated, inhibition, significance) (Carcinogen: DIMETHYLNITROSAMINE [62-75-9], Dose [Inhibitor]: 100 MG/KG BW FOR 3 MO ADMINISTERED BEFORE CARCINOGEN (STUDY DURATION: 12 MO), Route [Inhibitor]: DIET, Strain/Sex: B6C3F1/MALE, Target Tissue: Type of Lesion: LIVER: TUMOR, Dose [Carcinogen]: 5 MG/KG BW 3 X A WK FOR 2 MO, THEN 10 MG/KG 2 X WK FOR 4 WKS AFTER 3 MO OF GSPE) | tumour outcome (control, treated, inhibition, significance) (Carcinogen: DIMETHYLNITROSAMINE [62-75-9], Dose [Inhibitor]: 100 MG/KG BW FOR 9 MO AFTER CARCINOGEN TREATMENT (STUDY DURATION: 12 MO), Route [Inhibitor]: DIET, Strain/Sex: B6C3F1/MALE, Target Tissue: Type of Lesion: LIVER: TUMOR, Dose [Carcinogen]: 5 MG/KG BW 3 X A WK FOR 2 MO, THEN 10 MG/KG 2 X WK FOR 1 MO) | tumour outcome (control, treated, inhibition, significance) (Carcinogen: DIMETHYLNITROSAMINE [62-75-9], Dose [Inhibitor]: 100 MG/KG BW FOR DURATION OF EXPERIMENT (STUDY DURATION: 12 MO), Route [Inhibitor]: DIET, Strain/Sex: B6C3F1/MALE, Target Tissue: Type of Lesion: LIVER: TUMOR, Dose [Carcinogen]: 5 MG/KG BW 3 X A WK FOR 2 MO, THEN 10 MG/KG 2 X WK FOR 4 WKS)
1 | Cc1cccc(C(=O)/C=C/c2cccc(O)c2)c1 | 90%, 20%, 78%, not calculated | – | – | –
2 | COc1c(O)cc(C2Oc3c(c(O)cc(O)c3[C@H]3c4c(O)cc(O)cc4O[C@H](c4ccc(O)cc4)[C@@H]3O)C[C@H]2O)cc1O (some centres undefined) | – | 85% (dmn); 60% gspe before dmn, 29%, not calculated | 85% (dmn); 55% gspe, 35%, not calculated | 85% (dmn); 45% gspe, 47%, not calculated
